Values quoted from earlier work in patent US20120135949A1, “COMBINATION THERAPY FOR TREATING HCV INFECTION” (BOEHRINGER INGELHEIM INTERNATIONAL GMBH, priority 2010, published 2012).

System: HCV
Details: compound (1) monotherapy, 14 days, 1a and 1b patients

C=C[C@@H]1C[C@]1(NC(=O)[C@@H]1C[C@H](Oc2cc(-c3csc(NC(=O)C(C)C)n3)nc3c(Br)c(OC)ccc23)CN1C(=O)[C@@H](NC(=O)OC1CCCC1)C(C)(C)C)C(=O)O [Compound (1)]
Virologic rebound during the treatment period: vast majority of both 1a and 1b patients demonstrated virologic rebound
